Test systems include NCI-H226 lung; A549 NSCLC; UACC-257 melanoma; IGROV1 ovarian; NCI-H23 lung; COLO 205 colon; HOP-62 NSCLC; CCRF-CEM leukemia.
Test in all cases: growth of human tumour cells (NCI), 48 h

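These data come from cells grown in 96-well plates and exposed to compound for 48 hours at five concentrations. Definition used: TGI = concentration required for complete inhibition of growth.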

Regarding `COC(=O)C1=C(CS(=O)c2ccc([N+](=O)[O-])cc2[N+](=O)[O-])ON(C)C1c1ccccc1` (stereo not given), the TGI with NCI-H226 lung is more than 100 µM; with A549 NSCLC it was more than 100 µM; in the assay on UACC-257 melanoma it was more than 100 µM; in the assay on IGROV1 ovarian, more than 100 µM; with NCI-H23 lung, more than 100 µM; in the assay with COLO 205 colon, more than 65 µM. The TGI with HOP-62 NSCLC was more than 100 µM; with CCRF-CEM leukemia, 37.9 µM.
`CC(=O)c1ccc(NC(=O)C(=O)C(C(=O)c2ccc(Cl)c(Cl)c2)C2OC(=O)c3ccccc32)cc1` (stereo not given): the TGI in the assay with NCI-H226 lung was 24.6 µM; in the assay with A549 NSCLC it was 58.2 µM; in the assay on UACC-257 melanoma it was more than 100 µM; in the assay with IGROV1 ovarian, 65.5 µM; in the assay on NCI-H23 lung it was 32.2 µM; in the assay on COLO 205 colon, 28.8 µM. Also, the TGI was 45.3 µM in the assay on HOP-62 NSCLC and more than 100 µM in the assay with CCRF-CEM leukemia.
For the compound `COc1ccc(-c2cc(-c3cc(C)ccc3O)[nH]c(=O)n2)cc1`, the TGI in the assay with NCI-H226 lung, in the assay with A549 NSCLC, in the assay on UACC-257 melanoma, in the assay on IGROV1 ovarian, in the assay on NCI-H23 lung and in the assay with COLO 205 colon was more than 100 µM each time. The results for the TGI with HOP-62 NSCLC and in the assay on CCRF-CEM leukemia were 76.4 µM and more than 100 µM, respectively.
Turning to `Cc1ccc(C(=O)C#Cc2c[nH]c(=O)[nH]c2=O)cc1`, the TGI came out at 34.5 µM with NCI-H226 lung; 39.8 µM in the assay with A549 NSCLC; 34.6 µM in the assay with UACC-257 melanoma; 31.2 µM in the assay with IGROV1 ovarian; 39.6 µM in the assay on NCI-H23 lung; 44.3 µM in the assay on COLO 205 colon. Also, the TGI with HOP-62 NSCLC was found to be 87.7 µM; in the assay on CCRF-CEM leukemia, 18.8 µM.
As to `CCOC(=O)C(=O)Nc1c(C)cccc1C(C)C`, the TGI in the assay with NCI-H226 lung, with A549 NSCLC, with UACC-257 melanoma, with IGROV1 ovarian, in the assay with NCI-H23 lung and in the assay on COLO 205 colon was more than 100 µM each time. The TGI in the assay with HOP-62 NSCLC and in the assay on CCRF-CEM leukemia was more than 100 µM in each case.
In the case of `COc1cc(Nc2nc3cc(C(F)(F)F)ccc3nc2-c2ccccc2)cc(OC)c1OC`, the TGI in the assay on NCI-H226 lung, in the assay with A549 NSCLC, with UACC-257 melanoma, in the assay with IGROV1 ovarian, in the assay with NCI-H23 lung and with COLO 205 colon was more than 100 µM throughout. Moreover, the values for the TGI in the assay with HOP-62 NSCLC and in the assay with CCRF-CEM leukemia were 94.6 µM and more than 100 µM, respectively.
On to `COc1ccccc1C(N)c1ccccc1` (stereo not given), for which the TGI with NCI-H226 lung, with A549 NSCLC, in the assay with UACC-257 melanoma, in the assay on IGROV1 ovarian, in the assay on NCI-H23 lung and in the assay on COLO 205 colon was more than 100 µM each time. In addition, the TGI in the assay on HOP-62 NSCLC and in the assay on CCRF-CEM leukemia was more than 100 µM in each case.
For the compound `O=NN/C(=C1\Nc2ccc([N+](=O)[O-])cc2NC1=O)C(O)c1ccc([N+](=O)[O-])cc1` (stereo not given), the TGI in the assay with NCI-H226 lung, in the assay with A549 NSCLC, in the assay on UACC-257 melanoma, with IGROV1 ovarian, in the assay on NCI-H23 lung and in the assay with COLO 205 colon was more than 100 µM in each case. For the same compound, the TGI with HOP-62 NSCLC and in the assay on CCRF-CEM leukemia was more than 100 µM in each case.
For `c1ccc(CN2CCCCC(Sc3ccccc3)CC2)cc1` (stereo not given), the TGI with NCI-H226 lung was 85.2 µM; in the assay with A549 NSCLC, more than 100 µM; in the assay with UACC-257 melanoma, more than 100 µM; in the assay on IGROV1 ovarian, more than 100 µM; in the assay on NCI-H23 lung, 64.3 µM; in the assay on COLO 205 colon, 26.2 µM. Further, the TGI in the assay on HOP-62 NSCLC is more than 100 µM; with CCRF-CEM leukemia it was 43.8 µM.
`Cc1c(C(=O)/C=C/c2c(Cl)cccc2Cl)c(=O)n(-c2ccccc2)n1C`: the TGI was 39.1 µM in the assay with NCI-H226 lung; 74.9 µM in the assay with A549 NSCLC; more than 100 µM in the assay with UACC-257 melanoma; more than 100 µM in the assay with IGROV1 ovarian; more than 100 µM in the assay with COLO 205 colon; 56.6 µM in the assay with CCRF-CEM leukemia.
Regarding `O=C1OC(c2ccccc2)=N/C1=C\c1cc(Cl)ccc1Cl`, the TGI in the assay on A549 NSCLC, with UACC-257 melanoma, in the assay with IGROV1 ovarian, in the assay on NCI-H23 lung, with COLO 205 colon and with HOP-62 NSCLC was more than 100 µM throughout. Also, in the assay on CCRF-CEM leukemia, the TGI was 66.8 µM.
On to `CN(C)C1=NC2=S(SC(Nc3ccccc3)=N2)S1` (stereo not given), for which the TGI with NCI-H226 lung was more than 100 µM; in the assay on A549 NSCLC, 47.2 µM; in the assay with UACC-257 melanoma, 70.8 µM; with IGROV1 ovarian, more than 100 µM; in the assay on NCI-H23 lung, more than 100 µM; in the assay with HOP-62 NSCLC, 67.7 µM. For the same compound, in the assay on CCRF-CEM leukemia, the TGI was more than 100 µM.
In the case of `CC1=NC(C(C)C)C(=O)O1` (stereo not given), the TGI in the assay on NCI-H226 lung, with UACC-257 melanoma, in the assay on IGROV1 ovarian, in the assay on NCI-H23 lung, in the assay with COLO 205 colon and in the assay on HOP-62 NSCLC was more than 100 µM throughout. Moreover, the TGI in the assay on CCRF-CEM leukemia was more than 100 µM.
With `CC1=CC(=O)c2c(C=O)c(O)c(O)c(C(C)C)c2C1=O`, the TGI with NCI-H226 lung is 54.8 µM; in the assay with IGROV1 ovarian, 63.9 µM; in the assay with NCI-H23 lung, more than 85.5 µM; in the assay on COLO 205 colon it was 57.4 µM; with HOP-62 NSCLC it was more than 100 µM; with CCRF-CEM leukemia, 60.1 µM.
